Data as given in patent US11529342B2, “Sorbic and benzoic acid and derivatives thereof enhance the activity of a neuropharmaceutical” (Los Angeles Biomedical Research Institute at Harbor-UCLA …, priority 2009, dated 2022).
Entries after “also recorded” stand apart in the source; their conditions may differ.

Tests used:
rats = test: Forced swim test (FST); type: in vivo; details: 500 mg/kg; for Immobility time (%): 5-min test, vehicle 46.94 ± 4.6; for duration of immobility compared to the vehicle control group: FST
Procedure: Following acclimation at least 7 days in the animal facility prior to initiation of behavioral testing, the animals (rats) were subjected to the forced swim test (FST). The method of the […] has been used in previous animal studies of depression, which was modified by Cryan from the Porsolt's FST. (Porsolt et al, 1977; Cryan et al, 2002) The test was performed using a acrylic cylinder (diameter, 20 cm; height, 40 cm) filled to a height of 30 cm with 25° C. water. Rats were processed to a 15-min conditioning swim. Following 24 h after their first exposure, the rats were again placed in the swim apparatus for 5 min. The behavior of rats was observed 5 min after the administration of various drug treatments or 0.9% saline (control). All behavioral testing was conducted between 1600-1800 h. On. the study day, the total periods of immobility during the 5-min testing period were recorded using the EthoVision Basic V 3.1 analysis program (Noldus, Wageningen, Netherlands). For the present experiment, the immobility threshold was set at 15% and a fixed averaging interval of 1 second was chosen to smooth the mobility parameter in EthoVision software. Below the immobile threshold, the animal is considered immobile. Using the settings, the activity of all rats was analyzed automatically and quantitatively for mobility and numbers of crossing vertical central line in the FST.

Male 129 SVE adult mice [1] = test: Acoustic startle habituation in mice, with and without amphetamine disruption; type: in vivo; details: for startle habituation, correction of amphetamine-induced disruption: amphetamine 10 mg/kg 30 minutes before the experiment
From the text: (§1) Therefore, to test the hypothesis that combinational NMDA-enhancing agent treatment has better efficacy than individual agent alone, we tested startle habituation and PPI in animals receiving single NMDA-enhancing agents, sarcosine (N-methylglycine, a glycine transporter-1 inhibitor), benzoate (a D-amino acid oxidase inhibitor), the combination of both agents or the vehicle. We also tested the hypothesis in a well accepted pharmacological model of schizophrenia, amphetamine--disruption of startle habituation and PPI.
For habituation, we present six trials of a single acoustic stimulus to each mouse. To provide a consistent acoustic environment and to mask external noises, maintain a continuous background noise level of 70 dB within each startle chamber. We collected the peak or average response from each mouse on each of six trials, then averaged the six responses together for each mouse. Five more trials at the end of PPI were done. The results were averaged and compared to the original six trials. The difference of startle responses between the initial six and the last five trials were considered the amount of habituation. Analyses include the independent variable (e.g., vehicle or drug treatment) as a factor in analyses of variance (ANOVA) on the dependent measures (difference of the average of the first and last […]).
(§2) There were a total of 36 trials in the experiments. The three prepulse stimuli were with a duration of 20 msec. For each mouse the following metrics were determined: 1) Average response magnitude on pulse--only trials 1 to 6 and 32 to 36; 2)Average response magnitude in each of the four trial types between trials 7 and 31 inclusively (i.e., ten pulse-only trials and five each of the three prepulse variations). The first block of pulse-only trials were analyzed as measures of startle reactivity. The first and last blocks of pulse-only trials were analyzed together in a repeated measure ANOVA to assess habituation of acoustic startle across the test session. The […] (3, 6, or 12 dB above background) derived from trials 7 to 31 were used to assess PPI which was calculated for each mouse as: Percentage score: PPI=100%×{[pulse-only units−(prepulse pulse units)]/(pulse-only units)}.
Male 129 SVE adult mice were first tested at baseline. Four groups of 10 mice each were treated with sarcosine (200 mg/kg), benzoate (100 mg/kg), a combination of both sarcosine and benzoate (same doses as the individual treatment), or with vehicle for one week before the test. The mice continued to receive the drug until one week later when amphetamatine (10 mg/kg) was administered 30 minutes before the experiments.

Male 129 SVE adult mice [2] = test: Prepulse inhibition (PPI) of acoustic startle, amphetamine disruption; type: in vivo; details: for PPI, correction of disruption by amphetamine: sarcosine 200 mg/kg, benzoate 100 mg/kg or both, amphetamine 10 mg/kg 30 minutes before
From the text: as §1
For the systematic investigation of the neurobiological systems that modulate sensorimotor inhibition, startle magnitude was investigated. Startle magnitude is reduced when the pulse stimulus is preceded 30 to 500 msec by a weak prepulse. This inhibition (“gating”) of a motor response elicited by a weak sensory event, termed PPI, provides an operational measure of sensorimotor gating. Prepulse stimuli of 3, 6, or 12 dB above the 70 dB background noise inhibit the startle response elicited by 120-dB pulse stimuli.
Prestimuli used in intranodal studies of sensorimotor gating of acoustic startle are by the delivery of a discrete acoustic prepulse several msec before the startle pulse, with an intensity below startle threshold. […]
as §2, with “The three prepulse stimuli were with a duration of 20 msec.” left out, “units)}. […]” for “units)}.”

schizophrenia patients [3] = test: 6-week randomized double-blind placebo-controlled add-on trial in schizophrenia, efficacy (PANSS, SANS, Quality of Life, GAF); type: in vivo, human; details: 1000-mg/day adjunctive to atypical antipsychotics, 6 weeks, n=18 per group
Procedure: The research protocol was approved by the Institutional Review Boards (IRB) of the institute. Patients were screened and evaluated by the research psychiatrists. After complete description of the study to the subjects, written informed consent was obtained in line with the IRB's guidelines. The Structured Clinical Interview for DSM-IV was conducted for the diagnosis.
The dosing for the concurrent antipsychotics (all atypical antipsychotics), was an optimal dosing strategy which minimize side effects, especially extrapyramidal side effects (EPS), and can still yield favorable efficacy. […]
All patients were then randomly assigned under double-blind conditions to receive a 6-week trial of placebo, or sodium benzoate (1 grams) daily. […] Patient's compliance and safety were closely monitored by the research psychiatrists and the inpatient nursing staff.
The primary outcome measures were psychopathology changes measured by PANSS (3) and, Scales for the Assessment of Negative symptoms (SANS) (4) total scores, Quality of Life scale (10 items for inpatient use) (1, 5), and Global Assessment of Function (Axis V in DSM IV) (2). […]
Clinical ratings were performed by the research psychiatrists who were trained and experienced in the rating scales. Inter-rater reliability was analyzed with the ANOVA test. […]

schizophrenia patients [4] = test: 6-week add-on trial in schizophrenia, safety and side-effect assessments; type: in vivo, human; details: 6 weeks
From the text: All patients were then randomly assigned under double-blind conditions to receive a 6-week trial of placebo, or sodium benzoate (1 grams) daily. Patients were randomized in clusters of six subjects, without stratification, through a computer-generated randomization table to receive placebo or active drugs in a 1:1 ratio. To ensure concealment of the randomization assignment, study medication was provided in coded containers with supply of identical-appearing capsules of placebo or either of active compounds. The research pharmacist implemented random allocation and masked treatment assignment was communicated by telephone to research staff. Patients, caregivers, and investigators (except for the investigational pharmacist) were all masked to the assignment. Patient's compliance and safety were closely monitored by the research psychiatrists and the inpatient nursing staff.
Side-effect assessments included Simpson-Angus Rating Scale for EPS (6), Abnormal Involuntary Movement Scale (AIMS) for dyskinesia (7), and Barnes Akathesia Scale (8). Systemic side effects of treatments were evaluated by means of routine physical and neurological examinations, laboratory tests, and reviewed by applying the Udvalg for Kliniske Undersogelser (UKU) Side-effects Rating Scale (9).

[5] = mice, sarcosine 200 mg/kg, benzoate 100 mg/kg or both

Row | Compound | Immobility time (%) (rats) | duration of immobility compared to the vehicle control group (rats) | startle habituation, correction of amphetamine-induced disruption (Male 129 SVE adult mice [1]; [5]) | PPI, correction of disruption by amphetamine (Male 129 SVE adult mice [2]) | other results
1 | C/C=C/C=C/C(=O)[O-].[K+] [Potassium Sorbate, potassium sorbate] | 27.64 ± 6.2% | decrease the duration of immobility significantly |  |  | 
2 | O=C([O-])c1ccccc1.[Na+] [Sodium Benzoate, sodium benzoate] | 40.17 ± 3.3% | decrease the duration of immobility significantly | partially correct the deficit; also recorded: better than sarcosine and close to effect seen in the combination treatment; also recorded: only partially corrected the deficit; also recorded: better than sarcosine and close to that seen in the combination treatment | partially corrected | startle habituation (difference of startle responses between initial and last trials) (Male 129 SVE adult mice [1]; mice treated one week, sarcosine 200 mg/kg, benzoate 100 mg/kg or both, no amphetamine): close to the effect seen in the combination treatment; positive and negative symptoms and quality of life versus placebo (schizophrenia patients [3]): significantly improve positive and negative symptoms and quality of life than placebo; safety and tolerability (schizophrenia patients [4]; adjunctive therapy): good safety and tolerability; treatment-emergent side effects (schizophrenia patients [4]; benzoate versus placebo): all mild, short-lived, and not warranting medical treatment
3 | CC(N)Cc1ccccc1 (stereo not drawn) [amphetamine, reference compound] |  |  |  |  | effect of amphetamine on startle habituation (Male 129 SVE adult mice [1]; mice, amphetamine 10 mg/kg 30 minutes before the experiments): disrupted the habituation; effect of amphetamine on PPI (Male 129 SVE adult mice [2]; amphetamine 10 mg/kg 30 minutes before the experiments): disrupted the inhibition in all treatments
4 | CNCC(=O)O [sarcosine, N-methylglycine, reference compound] |  |  | combination treatment>benzoate>sarcosine | partially corrected | startle habituation, correction of amphetamine-induced disruption (Male 129 SVE adult mice [1]; mice, sarcosine 200 mg/kg, benzoate 100 mg/kg or both, listed as NMG): partially correct the deficit; also recorded: only partially corrected the deficit
